According to patent US9393271B2, “GHRH agonists for islet cell transplantation and function and the treatment of diabetes” (UNIVERSITY OF MIAMI, priority 2012, dated 2016):
Non-standard residues stand in square brackets, D forms with d. Residues, ends and D or L forms follow the SMILES beside them. *: point of attachment. Phe(F5) = N[C@@H](Cc1c(F)c(F)c(F)c(F)c1F)C(=O)O; Desaminotyrosyl = O=C(CCc1ccc(O)cc1)*; NMeY = CN[C@@H](Cc1ccc(O)cc1)C(=O)O; Agmatine = N=C(N)NCCCCN*; Nle = CCCC[C@H](N)C(=O)O; Orn = NCCC[C@H](N)C(=O)O; Abu = CC[C@H](N)C(=O)O; Aoc = NCCCCCCCC(=O)O; Ava = NCCCCC(=O)O; GABA = NCCCC(=O)O

Columns and labels:
[1] = molecular target: T1, GHRH receptor (human pituitary membrane homogenates) (Homo sapiens, UniProt Q02643); experiment: GHRH receptor binding, ligand competition with 125I-labeled [His1,Nle27]hGHRH(1-32)NH2 (Table 6); conditions: for Relative affinitiy (Binding potency) vs GHRH: GHRH(1-29) = 1
T1 sequence (Q02643 23-423): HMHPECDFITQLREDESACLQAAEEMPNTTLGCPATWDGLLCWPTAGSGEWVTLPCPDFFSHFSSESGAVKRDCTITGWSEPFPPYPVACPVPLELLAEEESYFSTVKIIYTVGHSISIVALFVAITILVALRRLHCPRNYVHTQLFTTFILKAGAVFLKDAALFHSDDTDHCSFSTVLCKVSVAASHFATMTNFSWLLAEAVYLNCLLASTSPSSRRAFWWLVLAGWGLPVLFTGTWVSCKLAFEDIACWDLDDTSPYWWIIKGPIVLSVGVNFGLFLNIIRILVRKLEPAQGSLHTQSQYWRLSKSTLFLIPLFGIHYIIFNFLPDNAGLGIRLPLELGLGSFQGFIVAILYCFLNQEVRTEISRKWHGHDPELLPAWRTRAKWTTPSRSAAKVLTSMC

[2] = molecular target: T1, GHRH receptor (human pituitary membrane homogenates); experiment: GHRH receptor binding, ligand competition with 125I-labeled JV-1-42 (Table 7); design: Normal human pituitaries were purchased from the National Hormone and Peptide Program; tissue National Hormone and Peptide Program (A. F. Parlow, Harbor-UCLA Medical Center, Torrance, Calif.); host or cells: normal human pituitary, membrane fraction / homogenate; conditions: JI-38 = 1
GH level = experiment: In vivo endocrine activity (GH release), subcutaneous administration; conditions: rat; for GH releasing potency relative to JI-38 (=1): s.c. injection
Method: Subcutaneous Administration. Adult male rats were used and anesthetized with pentobarbital (6 mg/100 g, b.w.), by i.p. injection. […] Blood samples were taken from the jugular vein 5, 15 and/or 30 minutes after the injection. The blood samples were centrifuged, plasma was removed and the GH level was measured by ELISA. The results are summarized in terms of potency in Table 9.

Structure (SMILES)	Relative affinitiy (Binding potency) vs GHRH [1]	Relative affinitiy (Binding potency) vs JI-38 [2]	Stimulation of growth hormone levels after s.c. administration (comparison in words) (GH level)	further results
CCCC[C@H](NC(=O)[C@@H](NC(=O)[C@H](CC(=O)O)NC(=O)[C@H](CCC(N)=O)NC(=O)[C@H](CC(C)C)NC(=O)[C@H](CC(C)C)NC(=O)[C@H](CCCN)NC(=O)[C@H](CCCNC(=N)N)NC(=O)[C@H](C)NC(=O)[C@H](CO)NC(=O)[C@H](CC(C)C)NC(=O)[C@H](CCC(N)=O)NC(=O)[C@H](CC)NC(=O)[C@H](CC(C)C)NC(=O)[C@@H](NC(=O)[C@H](CCCN)NC(=O)[C@H](CCCNC(=N)N)NC(=O)[C@H](Cc1ccc(O)cc1)NC(=O)[C@H](CO)NC(=O)[C@H](CC(N)=O)NC(=O)[C@@H](NC(=O)[C@H](Cc1ccccc1)NC(=O)[C@@H](NC(=O)[C@H](C)NC(=O)[C@H](CC(=O)O)NC(=O)[C@H](C)NC(=O)CCc1ccc(O)cc1)[C@@H](C)CC)[C@@H](C)O)C(C)C)[C@@H](C)CC)C(=O)N[C@@H](CC(=O)O)C(=O)NCCCCNC(=N)N [JI-34, reference compound] (Desaminotyrosyl-ADAIFTNSYR[Orn]VL[Abu]QLSAR[Orn]LLQDI[Nle]D-Agmatine; N-terminus and C-terminus assumed)	4.32			
CCCC[C@H](NC(=O)[C@@H](NC(=O)[C@H](CC(=O)O)NC(=O)[C@H](CCC(N)=O)NC(=O)[C@H](CC(C)C)NC(=O)[C@H](CC(C)C)NC(=O)[C@H](CCCN)NC(=O)[C@H](CCCNC(=N)N)NC(=O)[C@H](C)NC(=O)[C@H](CO)NC(=O)[C@H](CC(C)C)NC(=O)[C@H](CCC(N)=O)NC(=O)[C@H](CC)NC(=O)[C@H](CC(C)C)NC(=O)[C@@H](NC(=O)[C@H](CCCN)NC(=O)[C@H](CCCNC(=N)N)NC(=O)[C@H](Cc1ccc(O)cc1)NC(=O)[C@H](CO)NC(=O)[C@@H](NC(=O)[C@@H](NC(=O)[C@H](Cc1ccccc1)NC(=O)[C@@H](NC(=O)[C@H](C)NC(=O)[C@H](CC(=O)O)NC(=O)[C@H](C)NC(=O)CCc1ccc(O)cc1)[C@@H](C)CC)[C@@H](C)O)[C@@H](C)O)C(C)C)[C@@H](C)CC)C(=O)N[C@@H](CC(=O)O)C(=O)NCCCCNC(=N)N [JI-36, reference compound] (Desaminotyrosyl-ADAIFTTSYR[Orn]VL[Abu]QLSAR[Orn]LLQDI[Nle]D-Agmatine; N-terminus and C-terminus assumed)	3.25			
CCCC[C@H](NC(=O)[C@@H](NC(=O)[C@H](CC(=O)O)NC(=O)[C@H](CCC(N)=O)NC(=O)[C@H](CC(C)C)NC(=O)[C@H](CC(C)C)NC(=O)[C@H](CCCN)NC(=O)[C@H](CCCNC(=N)N)NC(=O)[C@H](C)NC(=O)[C@H](CO)NC(=O)[C@H](CC(C)C)NC(=O)[C@H](CCC(N)=O)NC(=O)[C@H](CC)NC(=O)[C@H](CC(C)C)NC(=O)[C@@H](NC(=O)[C@H](CCCN)NC(=O)[C@H](CCCNC(=N)N)NC(=O)[C@H](Cc1ccc(O)cc1)NC(=O)[C@H](CO)NC(=O)[C@H](CCC(N)=O)NC(=O)[C@@H](NC(=O)[C@H](Cc1ccccc1)NC(=O)[C@@H](NC(=O)[C@H](C)NC(=O)[C@H](CC(=O)O)NC(=O)[C@@H](C)NC(=O)CCc1ccc(O)cc1)[C@@H](C)CC)[C@@H](C)O)C(C)C)[C@@H](C)CC)C(=O)N[C@@H](CC(=O)O)C(=O)N[C@@H](CCCNC(=N)N)C(=O)NCCCCCCCC(N)=O [Peptide P-21304, [Dat^1, D-Ala^2, Gln^8, Orn^12, Abu^15, Orn^21, Nle^27, Asp^28, Amc^30]hGHRH(1-30)NH2] (Desaminotyrosyl-[dA]DAIFTQSYR[Orn]VL[Abu]QLSAR[Orn]LLQDI[Nle]DR[Aoc]-NH2)	74.0			Relative affinitiy (Binding potency) vs JI-38 ([1]; JI-38 = 1): 24.4
CCCC[C@H](NC(=O)[C@@H](NC(=O)[C@H](CC(=O)O)NC(=O)[C@H](CCC(N)=O)NC(=O)[C@H](CC(C)C)NC(=O)[C@H](CC(C)C)NC(=O)[C@H](CCCN)NC(=O)[C@H](CCCNC(=N)N)NC(=O)[C@H](C)NC(=O)[C@H](CO)NC(=O)[C@H](CC(C)C)NC(=O)[C@H](CCC(N)=O)NC(=O)[C@H](CC)NC(=O)[C@H](CC(C)C)NC(=O)[C@@H](NC(=O)[C@H](CCCN)NC(=O)[C@H](CCCNC(=N)N)NC(=O)[C@H](Cc1ccc(O)cc1)NC(=O)[C@H](CO)NC(=O)[C@H](CCC(N)=O)NC(=O)[C@@H](NC(=O)[C@H](Cc1ccccc1)NC(=O)[C@@H](NC(=O)[C@H](C)NC(=O)[C@H](CC(=O)O)NC(=O)[C@@H](C)NC(=O)[C@H](Cc1ccc(O)cc1)NC)[C@@H](C)CC)[C@@H](C)O)C(C)C)[C@@H](C)CC)C(=O)N[C@@H](CC(=O)O)C(=O)N[C@@H](CCCNC(=N)N)C(=O)NCCCCC(N)=O [Peptide P-22326, [N—Me-Tyr^1, D-Ala^2, Gln^8, Orn^12, Abu^15, Orn^21, Nle^27, Asp^28, Apa^30]hGHRH(1-30)NH2] (H-[NMeY][dA]DAIFTQSYR[Orn]VL[Abu]QLSAR[Orn]LLQDI[Nle]DR[Ava]-NH2)		6.12	stimulated greater growth hormone levels than hGHRH or JI-38	
CCCC[C@H](NC(=O)[C@@H](NC(=O)[C@H](CC(=O)O)NC(=O)[C@H](CCC(N)=O)NC(=O)[C@H](CC(C)C)NC(=O)[C@H](CC(C)C)NC(=O)[C@H](CCCN)NC(=O)[C@H](CCCNC(=N)N)NC(=O)[C@H](C)NC(=O)[C@H](CO)NC(=O)[C@H](CC(C)C)NC(=O)[C@H](CCC(N)=O)NC(=O)[C@H](CC)NC(=O)[C@H](CC(C)C)NC(=O)[C@@H](NC(=O)[C@H](CCCN)NC(=O)[C@H](CCCNC(=N)N)NC(=O)[C@H](Cc1ccc(O)cc1)NC(=O)[C@H](CO)NC(=O)[C@H](CC(N)=O)NC(=O)[C@@H](NC(=O)[C@H](Cc1ccccc1)NC(=O)[C@@H](NC(=O)[C@H](C)NC(=O)[C@H](CC(=O)O)NC(=O)[C@@H](C)NC(=O)[C@H](Cc1ccc(O)cc1)NC)[C@@H](C)CC)[C@@H](C)O)C(C)C)[C@@H](C)CC)C(=O)N[C@@H](CO)C(=O)N[C@@H](CCCNC(=N)N)C(=O)NCCCC(N)=O [Peptide P-25501, [N—Me-Tyr^1, D-Ala^2, Orn^12, Abu^15, Orn^21, Nle^27, Gab^30]hGHRH(1-30)NH2] (H-[NMeY][dA]DAIFTNSYR[Orn]VL[Abu]QLSAR[Orn]LLQDI[Nle]SR[GABA]-NH2)		4.07	stimulated greater growth hormone levels than hGHRH or JI-38	
CCCC[C@H](NC(=O)[C@@H](NC(=O)[C@H](CC(=O)O)NC(=O)[C@H](CCC(N)=O)NC(=O)[C@H](CC(C)C)NC(=O)[C@H](CC(C)C)NC(=O)[C@H](CCCN)NC(=O)[C@H](CCCNC(=N)N)NC(=O)[C@H](C)NC(=O)[C@H](CO)NC(=O)[C@H](CC(C)C)NC(=O)[C@H](CCC(N)=O)NC(=O)[C@H](CC)NC(=O)[C@H](CC(C)C)NC(=O)[C@@H](NC(=O)[C@H](CCCN)NC(=O)[C@H](CCCNC(=N)N)NC(=O)[C@H](Cc1ccc(O)cc1)NC(=O)[C@H](CO)NC(=O)[C@H](CC(N)=O)NC(=O)[C@@H](NC(=O)[C@H](Cc1c(F)c(F)c(F)c(F)c1F)NC(=O)[C@@H](NC(=O)[C@H](C)NC(=O)[C@H](CC(=O)O)NC(=O)[C@@H](C)NC(=O)[C@H](Cc1ccc(O)cc1)NC)[C@@H](C)CC)[C@@H](C)O)C(C)C)[C@@H](C)CC)C(=O)N[C@@H](CC(=O)O)C(=O)N[C@@H](CCCNC(=N)N)C(=O)NC [Peptide P-27404, [N—Me-Tyr^1, D-Ala^2, Fpa5^6, Orn^12, Abu^15, Orn^21, Nle^27, Asp^28]hGHRH(1-29)NH—CH3] (H-[NMeY][dA]DAI[Phe(F5)]TNSYR[Orn]VL[Abu]QLSAR[Orn]LLQDI[Nle]DR-NHMe)		5.00	stimulated greater growth hormone levels than hGHRH or JI-38	GH releasing potency relative to JI-38 (=1) (GH level; 15 min after): 2.07; GH releasing potency relative to JI-38 (=1) (GH level; 30 min after): 1.47
CCCC[C@H](NC(=O)[C@@H](NC(=O)[C@H](CC(=O)O)NC(=O)[C@H](CCC(N)=O)NC(=O)[C@H](CC(C)C)NC(=O)[C@H](CC(C)C)NC(=O)[C@H](CCCN)NC(=O)[C@H](CCCNC(=N)N)NC(=O)[C@H](C)NC(=O)[C@H](CO)NC(=O)[C@H](CC(C)C)NC(=O)[C@H](CCC(N)=O)NC(=O)[C@H](CC)NC(=O)[C@H](CC(C)C)NC(=O)[C@@H](NC(=O)[C@H](CCCN)NC(=O)[C@H](CCCNC(=N)N)NC(=O)[C@H](Cc1ccc(O)cc1)NC(=O)[C@H](CO)NC(=O)[C@H](CC(N)=O)NC(=O)[C@@H](NC(=O)[C@H](Cc1ccccc1)NC(=O)[C@@H](NC(=O)[C@H](C)NC(=O)[C@H](CC(=O)O)NC(=O)[C@@H](C)NC(=O)[C@H](Cc1ccc(O)cc1)NC)[C@@H](C)CC)[C@@H](C)O)C(C)C)[C@@H](C)CC)C(=O)N[C@@H](CC(=O)O)C(=O)N[C@@H](CCCNC(=N)N)C(=O)NC [Peptide P-27409, [N—Me-Tyr^1, D-Ala^2, Orn^12, Abu^15, Orn^21, Nle^27, Asp^28]hGHRH(1-29)NH—CH3] (H-[NMeY][dA]DAIFTNSYR[Orn]VL[Abu]QLSAR[Orn]LLQDI[Nle]DR-NHMe)		4.10	stimulated greater growth hormone levels than hGHRH or JI-38	
